Results on eleven compounds are retold here after patent US9320741B2, “Compositions and methods for treating neoplasia, inflammatory disease and other disorders” (Dana-Farber Cancer Institute, Inc., priority 2010, dated 2016).

As usually defined, the AUC is concentration integrated over time. Low readings indicate low exposure, high ones high exposure. As usually defined, the IC50 is the midpoint of a concentration-inhibition curve.

Data set [1] concerns NMC 11060 xenografts. Kind of data set: Patient-derived NMC 11060 primary xenograft study. It is filed as in vivo, mice. Particulars: 50 mg kg^−1 daily for four days. The text has this: In parallel with these studies, a patient with widely metastatic BRD4-NUT positive NMC arising from the mediastinum was identified. With the goal of developing a more clinically-relevant disease model, short-term cultures were established using discarded clinical material obtained from pleural fluid draining from a palliative chest tube in the patient.

For data set [2], the target named is GFP-BRD4 (Homo sapiens (Human), UniProt O60885).
Data set [3] concerns NMC 797 and Per403 cells. Nature of the data set: Differentiation and proliferation immunohistochemistry, NMC cells. Format: cell-based, human. The source says: Direct inhibition of gene products expressed from recurrent, oncogenic translocations is a validated therapeutic approach in cancer^28,29. The phenotypic consequences of chemical inhibition of BET-family bromodomains on the BRD4-dependent NUT midline carcinoma was explored. BRD4-NUT chromatin localization is mechanistically linked to the preserved tandem bromodomains of BRD4 in the fusion protein^17. A characteristic feature of NMC is the appearance of discrete nuclear speckles of the BRD4-NUT oncoprotein by NUT-directed immunohistochemistry (IHC)^30.
A striking differentiation phenotype is observed with knock-down of BRD4-NUT in NMC cell lines^17. […] Differentiation was prompt (<24 hours) and characterized by markedly augmented expression of cytokeratin, a hallmark of squamous differentiation (FIG. 3h).

The test system of data set [4] is Keratin-14, Keratin-10, epidermal transglutaminase (TGM1). Kind of data set: RT-PCR expression analysis of squamous tissue genes in NMC 797 cells. It is filed as cell-based, human.
In data set [5] the test system is NMC 797 cells. Nature of the data set: Flow cytometry for DNA content, NMC 797. It is filed as cell-based, human. The note with it: 250 nM, 48 h. How it is done:
Data is presented as mean±s.d. (n=3). IC50 values were calculated by logistic regression. […] Data points are mean±s.d. (n=3). […] PI, propidium iodide. […] A significant response to therapy is observed by two-tailed t-test at 14 days (p=0.039). Data represent the mean±s.d. (n=7). […] Expanded fields are provided in Supplementary FIGS. 11, 12. […] Quantitative analysis of keratin induction was performed using image masking (FIG. 5J, right panel) and pixel positivity analysis (FIG. 5K). A significant response to therapy is observed by two-tailed t-test (p=0.0001). Data represent the mean±s.d. of three independent wide microscopic fields.
(A flow cytometer gives signals particle by particle.)

The subject of data set [6] is NMC 11060 cells. Kind of data set: Flow cytometry for DNA content, NMC 11060. It is filed as cell-based, human. The note with it: 250 nM, 48 h. How it is done:
Data is presented as mean±s.d. (n=3). IC50 values were calculated by logistic regression. […] Data points are mean±s.d. (n=3).

The nature of data set [7]: Pharmacokinetic studies in CD1 mice. Particulars: for AUC: CD1, mouse, plasma.
Data set [8] concerns 797 cells. Nature of the data set: Cell proliferation assay, 797 cell line. Format: cell-based. Particulars: Homo sapiens, read-out: Cell-assay IC50 797 cells.
Procedure: Curve fit was calculated by logistical regression.
Cells were seeded into white, 384-well microtiter plates (Nunc) at 500 cells per well in a total volume of 50 μL media. […] Compounds were delivered to microtiter assay plates by robotic pin transfer (PerkinElmer JANUS equipped with a V&P Scientific 100 nL pin tool). Following a 48 h incubation at 37° C., cells were lysed and wells were assessed for total ATP content using a commercial proliferation assay (Cell TiterGlo; Promega). Replicate measurements were analyzed with respect to dose and estimates of IC50 were calculated by logistic regression (GraphPad Prism).
For data set [9], the target named is CBP (Homo sapiens (Human), UniProt Q92793). Nature of the data set: AlphaScreen profiling against CBP. It is filed as binding. The method, then: (§1) Assays were performed as described previously^8 with minor modifications from the manufacturer's protocol (PerkinElmer, USA). All reagents were diluted in 50 mM HEPES, 100 mM NaCl, 0.1% BSA, pH 7.4 supplemented with 0.05% CHAPS and allowed to equilibrate to room temperature prior to addition to plates. […] Plates were sealed and incubated for a further 30 minutes, before the addition of 4 μl of streptavidin-coated donor beads (25 μg/ml) and 4 μl nickel chelate acceptor beads (25 μg/ml) under low light conditions. Plates were foil-sealed to protect from light, incubated at room temperature for 60 minutes and read on a PHERAstar FS plate reader (BMG Labtech, Germany) using an AlphaScreen 680 excitation/570 emission filter set. IC50 values were calculated in Prism 5 (GraphPad Software, USA) after normalization against corresponding DMSO controls and are given as the final concentration of compound in the 20 μl reaction volume.
CBP, sequence (Q92793 whole entry): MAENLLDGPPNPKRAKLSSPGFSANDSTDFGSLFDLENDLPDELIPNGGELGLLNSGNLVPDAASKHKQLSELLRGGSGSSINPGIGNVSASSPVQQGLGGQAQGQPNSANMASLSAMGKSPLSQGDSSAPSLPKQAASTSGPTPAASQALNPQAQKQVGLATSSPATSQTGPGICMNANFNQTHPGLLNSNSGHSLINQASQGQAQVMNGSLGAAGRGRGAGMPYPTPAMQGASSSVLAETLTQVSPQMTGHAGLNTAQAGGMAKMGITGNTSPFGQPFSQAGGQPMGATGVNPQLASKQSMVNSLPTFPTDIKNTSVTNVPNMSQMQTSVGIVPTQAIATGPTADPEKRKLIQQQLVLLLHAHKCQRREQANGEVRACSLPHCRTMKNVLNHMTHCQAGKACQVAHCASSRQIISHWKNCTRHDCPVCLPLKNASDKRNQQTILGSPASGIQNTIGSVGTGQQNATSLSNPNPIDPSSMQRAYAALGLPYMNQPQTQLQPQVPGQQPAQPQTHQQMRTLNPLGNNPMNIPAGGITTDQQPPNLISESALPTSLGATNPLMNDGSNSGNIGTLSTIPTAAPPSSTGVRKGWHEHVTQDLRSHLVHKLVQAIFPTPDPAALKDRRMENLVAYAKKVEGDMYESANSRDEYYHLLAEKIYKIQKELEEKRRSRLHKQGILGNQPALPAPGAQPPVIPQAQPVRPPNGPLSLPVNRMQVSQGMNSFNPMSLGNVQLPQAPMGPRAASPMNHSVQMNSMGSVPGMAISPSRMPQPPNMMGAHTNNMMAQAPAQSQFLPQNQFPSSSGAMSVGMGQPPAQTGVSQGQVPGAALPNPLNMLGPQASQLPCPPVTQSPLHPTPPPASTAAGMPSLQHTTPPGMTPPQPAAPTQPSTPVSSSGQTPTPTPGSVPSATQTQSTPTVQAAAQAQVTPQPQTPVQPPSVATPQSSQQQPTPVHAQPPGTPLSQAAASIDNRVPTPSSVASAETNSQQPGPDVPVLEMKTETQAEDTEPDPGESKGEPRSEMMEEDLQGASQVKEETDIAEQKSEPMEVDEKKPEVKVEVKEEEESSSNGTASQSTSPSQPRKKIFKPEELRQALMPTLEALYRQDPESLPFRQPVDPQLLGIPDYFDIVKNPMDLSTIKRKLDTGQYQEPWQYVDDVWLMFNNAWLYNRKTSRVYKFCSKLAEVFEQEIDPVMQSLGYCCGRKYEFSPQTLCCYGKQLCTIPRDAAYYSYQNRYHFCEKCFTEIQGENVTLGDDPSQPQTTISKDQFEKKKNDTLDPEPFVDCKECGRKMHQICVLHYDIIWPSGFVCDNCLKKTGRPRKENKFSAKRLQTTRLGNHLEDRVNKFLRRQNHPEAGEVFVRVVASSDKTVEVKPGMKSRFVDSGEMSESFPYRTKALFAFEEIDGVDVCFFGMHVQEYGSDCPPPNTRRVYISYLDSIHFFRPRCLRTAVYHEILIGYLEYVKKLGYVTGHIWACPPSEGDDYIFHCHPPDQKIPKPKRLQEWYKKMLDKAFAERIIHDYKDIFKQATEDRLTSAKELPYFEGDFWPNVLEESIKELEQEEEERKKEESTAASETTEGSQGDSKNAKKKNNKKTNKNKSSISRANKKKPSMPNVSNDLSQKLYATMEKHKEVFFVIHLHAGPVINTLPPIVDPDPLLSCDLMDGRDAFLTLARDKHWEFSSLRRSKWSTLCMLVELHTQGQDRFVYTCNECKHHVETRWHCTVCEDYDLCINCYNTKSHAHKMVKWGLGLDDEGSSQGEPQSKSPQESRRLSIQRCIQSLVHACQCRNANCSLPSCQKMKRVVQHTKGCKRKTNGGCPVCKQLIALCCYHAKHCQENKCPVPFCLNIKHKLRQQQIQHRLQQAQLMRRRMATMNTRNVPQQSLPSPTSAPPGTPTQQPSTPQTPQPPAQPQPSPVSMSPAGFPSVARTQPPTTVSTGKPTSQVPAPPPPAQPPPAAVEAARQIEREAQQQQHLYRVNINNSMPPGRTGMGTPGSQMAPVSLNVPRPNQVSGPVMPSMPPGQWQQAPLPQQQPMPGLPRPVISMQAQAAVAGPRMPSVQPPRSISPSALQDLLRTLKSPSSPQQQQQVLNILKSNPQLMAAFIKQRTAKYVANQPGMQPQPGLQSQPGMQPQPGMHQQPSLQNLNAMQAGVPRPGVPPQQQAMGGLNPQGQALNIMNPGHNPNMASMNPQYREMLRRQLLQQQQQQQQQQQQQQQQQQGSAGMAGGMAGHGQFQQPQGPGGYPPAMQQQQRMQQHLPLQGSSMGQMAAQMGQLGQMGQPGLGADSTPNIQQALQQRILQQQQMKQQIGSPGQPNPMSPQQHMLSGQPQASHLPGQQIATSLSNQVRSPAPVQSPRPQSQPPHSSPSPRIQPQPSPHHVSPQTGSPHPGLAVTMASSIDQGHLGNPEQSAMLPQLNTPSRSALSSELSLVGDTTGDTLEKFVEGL

Data set [10] has as its system BET family members. Nature of the data set: AlphaScreen profiling against other BET family members. Format: binding, human. A general note: In Alpha technology, singlet oxygen from a donor bead excites a nearby acceptor bead.
Data set [11] concerns the target BRD4(1) (Homo sapiens (Human), UniProt O60885). Nature of the data set: Alpha-assay acetyl-histone binding, BRD4 site 1. The note with it: 12-point dose response curve; for IC50: read-out: Bio-assay IC50 BRD4(1). The method, then: The binding activity of lead compounds with the BRD4 site 1 was determined by Alpha-assay with a 12-point dose response curve (FIG. 56A).
as §1

Data set [12] has as its target BRD4(2) (Homo sapiens (Human), UniProt O60885). Nature of the data set: Alpha-assay acetyl-histone binding, BRD4 site 2. The note with it: 12-point dose response curve; for IC50: read-out: Bio-assay IC50 BRD4(2).
Data set [13] is described as follows: Unspecified biological assay.
For data set [14], the system named is TT and TE10. Nature of the data set: Cell proliferation assay, non-NMC squamous carcinoma lines. Particulars: TT and TE10, 250 nM, 72 hours. It is filed as cell-based, human. The method, then: Data is presented as mean±s.d. (n=3). IC50 values were calculated by logistic regression.
The subject of data set [15] is BRD3-NUT cells. Kind of data set: BRD3-NUT xenograft study. Format: in vivo, mice. Particulars: 50 mg/kg IP 7 days/week. The source says: Mice were implanted subcutaneously with BRD3-NUT cells. Tumor measurement data were collected weekly. […] On day 24 post-injection, five mice from each group were euthanized and tumor samples were collected to be sent for lab analysis. Throughout the remainder of the study tumor samples were collected as mice were sacrificed. For all samples one half of the tumor was fixed in 10% formalin and the other half was flash frozen on dry ice. Treatment ended on day 32. Tumor volume and weights were collected weekly until all mice either became moribund or tumors reached 2 cm in any dimension. […] Upon cessation of therapy, tumor growth resumed. Tumor volume differences were significant at all points (p=7.65274E-09 at Day 24).

In data set [16] the test system is TE10 and TT. Kind of data set: Differentiation immunohistochemistry, non-BRD4-dependent squamous carcinoma lines. Format: cell-based, human.
Data set [17] concerns BRD4-dependent human carcinoma cells. Nature of the data set: Annexin-V/propidium iodide flow cytometry, BRD4-dependent carcinoma cells. Particulars: 500 nM, 24 or 48 hours. Format: cell-based. How it is done:
Thus, early and late apoptosis was assessed with annexin-V and propidium iodide staining by flow cytometry.
Trypsinized cells were mixed 1:1 on ice with Annexin-V/propidium iodide buffer (10 mM HEPES pH 7.4, 140 mM NaCl, 2.5 mM CaCl2) containing Annexin V-FITC (BD Pharmingen, 1:500) and propidium iodide (Invitrogen, 1:1000). Samples were immediately analyzed on a BD FACS Canto II. Visualizations and analyses of apoptotic fractions were generated using FlowJo flow cytometry analysis software (Tree Star, Inc.).

Data set [18] deals with GFP-BRD4-NUT (Homo sapiens (Human), UniProt O60885+Q86Y26). Particulars: 500 nM, compared to vehicle control.
Procedure: (§2) FRAP studies were performed on U2OS cells as previously described^3,20. In brief, U2OS cells were transfected (lipofectamine; Invitrogen) with mammalian overexpression constructs encoding GFP chimera with BRD4, NUT and BRD4-NUT. A 5 μm^2 nuclear region was bleached with high laser intensity in one cell within each field, and measured for recovery with low laser intensity and a 150 μm pinhole. Images of identical fields were acquired using a Nikon Cl Plus confocal microscope equipped with a 37° C. heated chamber and FRAP modules over 90 seconds. Average intensities of the bleached region were measured over time and using MetaMorph v7, and normalized to an independent region of interest before bleaching.
Data set [19] concerns the target GFP-NUT (Homo sapiens (Human), UniProt Q86Y26). Nature of the data set: FRAP in U2OS cells, GFP-NUT. The note with it: 500 nM.
Procedure: as §2
The subject of data set [20] is NMC 797 xenografts. Nature of the data set: NMC 797 xenograft efficacy study.
Procedure: Prior to randomization and after four days of therapy, mice were evaluated by PET imaging.
To capture comparative mechanistic and pharmacodynamic data, all animals were sacrificed and tumors were explanted for histopathologic analysis.
Animals were followed daily for clinical symptoms. Tumor measurements were assessed by caliper measurements, and volume calculated using the formula Vol=0.5×L×W^2. After 2 weeks of treatment, all mice were humanely euthanized, and tumors were fixed in 10% formalin for histopathological examination. Statistical significance of tumor volumes was calculated by two-sided Students t-test. All animal studies were approved by the IACUC of the DFCI.
For data set [21], the system named is cellular receptors. Nature of the data set: Off-target effects on cellular receptors.

Read-outs that look alike come from different tables or passages of the source.

GFP-NUT, sequence (Q86Y26 whole entry, looked up): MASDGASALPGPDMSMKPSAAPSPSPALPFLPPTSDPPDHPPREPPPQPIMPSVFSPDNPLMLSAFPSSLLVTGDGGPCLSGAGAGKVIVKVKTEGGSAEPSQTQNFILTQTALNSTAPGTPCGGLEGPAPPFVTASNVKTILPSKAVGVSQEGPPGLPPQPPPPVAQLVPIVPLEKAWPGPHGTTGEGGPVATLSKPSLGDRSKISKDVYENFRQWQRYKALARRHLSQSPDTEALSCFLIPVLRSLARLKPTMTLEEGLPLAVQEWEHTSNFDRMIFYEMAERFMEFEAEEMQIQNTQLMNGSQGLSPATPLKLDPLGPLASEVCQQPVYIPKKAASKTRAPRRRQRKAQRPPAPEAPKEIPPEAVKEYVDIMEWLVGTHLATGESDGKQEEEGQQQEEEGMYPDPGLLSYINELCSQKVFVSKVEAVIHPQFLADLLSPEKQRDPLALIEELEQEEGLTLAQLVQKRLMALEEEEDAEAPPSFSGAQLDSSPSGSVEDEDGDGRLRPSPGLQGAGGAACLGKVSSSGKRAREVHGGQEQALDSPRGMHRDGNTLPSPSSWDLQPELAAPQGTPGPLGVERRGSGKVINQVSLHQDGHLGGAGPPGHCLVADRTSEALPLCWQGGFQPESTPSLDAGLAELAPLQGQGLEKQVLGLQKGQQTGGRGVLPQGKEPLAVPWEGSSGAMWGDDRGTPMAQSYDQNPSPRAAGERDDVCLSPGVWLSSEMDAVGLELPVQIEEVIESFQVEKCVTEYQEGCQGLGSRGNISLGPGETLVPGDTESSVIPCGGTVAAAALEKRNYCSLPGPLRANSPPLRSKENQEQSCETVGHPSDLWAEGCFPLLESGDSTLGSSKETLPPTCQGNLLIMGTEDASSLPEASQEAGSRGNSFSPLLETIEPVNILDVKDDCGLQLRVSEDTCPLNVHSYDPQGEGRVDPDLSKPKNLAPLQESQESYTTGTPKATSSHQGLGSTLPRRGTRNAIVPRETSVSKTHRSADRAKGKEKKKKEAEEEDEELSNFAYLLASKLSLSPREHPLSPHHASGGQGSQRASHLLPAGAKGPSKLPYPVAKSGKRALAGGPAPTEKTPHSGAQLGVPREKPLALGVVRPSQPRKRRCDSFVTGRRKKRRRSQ

For `Cc1sc2c(c1C)C(c1ccc(Cl)cc1)=N[C@@H](CC(=O)OC(C)(C)C)c1nnc(C)n1-2` (single isomer, unassigned) [(+)-JQ1], in data set [1], the “FDG uptake by PET imaging” value was “marked response on FDG uptake” and the “tumor keratin expression, quantitative IHC” value is reported as “induction of keratin expression”. Further, the “fluorescence recovery of GFP-BRD4” value in [2] (250 nM, 5 h, compared to vehicle control) was “enhanced recovery”. For the same compound, the “differentiation and growth arrest phenotypes” value in [3] (BRD4-dependent NMC cells) was “differentiation and growth arrest phenotypes are prompted”. Further, in data set [4], the “effect on epidermal transglutaminase (TGM1)” value is listed as “absent effect” and the “induction of Keratin-10” value is reported as “modest induction”. In [5], the “cell cycle (DNA content)” value is recorded as “induced a G1 arrest”. In data set [6], the “cell cycle (DNA content)” value was “induces a G1 arrest”. Further, in data set [7] (iv, 5 mg/kg), the AUC was found to be 2090 ng·h/mL. This compound registered an AUC in data set [7] (po, 10 mg/kg) of 2090 ng·h/mL. For the same compound, in data set [7] (CD1 mice, intravenous 5 mg kg^−1), the “half-life (T1/2)” value is recorded as “approximately one”.

Regarding `Cc1sc2c(c1C)C(c1ccc(Cl)cc1)=N[C@H](CC(=O)OC(C)(C)C)c1nnc(C)n1-2` [(R)-JQ1], in data set [8] (72 h), the half-inhibitory concentration (IC50) stood at 1540 nM.

Take `Cc1sc2c(c1C)C(c1ccc(Cl)cc1)=N[C@@H](CC(=O)OC(C)(C)C)c1nnc(C)n1-2` [JQ1S]: the “binding and inhibition of CBP” value in [9] is “inactive”. The “binding and inhibition of BET family members” value in data set [10] is “active”.

`Cc1sc2c(c1C)C(c1ccc(Cl)cc1)=N[C@@H](CC(=O)N/N=C/c1ncc[nH]1)c1nnc(C)n1-2` [JQ6]: the “binding activity with the BRD4 site 1” value in data set [11] is on record as “excellent binding activity”. Also, the “binding activity with the BRD4 site 2” value in data set [12] is on record as “excellent binding activity”.

As for `Cc1sc2c(c1C)C(c1ccc(Cl)cc1)=N[C@@H](CC(=O)NCCc1cnc[nH]1)c1nnc(C)n1-2` [JQ8], the “binding activity with the BRD4 site 1” value in data set [11] is reported as “excellent binding activity”. The “binding activity with the BRD4 site 2” value in data set [12] was “excellent binding activity”.

In the case of `Cc1sc2c(c1C)C(c1ccc(Cl)cc1)=N[C@@H](CC(=O)NCCN1CCN(C)CC1)c1nnc(C)n1-2` [JQ13], in data set [11], the “binding activity with the BRD4 site 1” value is “excellent binding activity” and the concentration for half-maximal inhibition (IC50) is 2.49 nM. Moreover, in data set [12], the “binding activity with the BRD4 site 2” value is reported as “excellent binding activity” and the IC50 stood at 0.584 nM. Besides, the 50% inhibitory concentration (IC50) in [8] (proliferation after 72 hours) came out at 10900 nM.

With `Cc1sc2c(c1C)C(c1ccc(Cl)cc1)=NC(CC(=O)NCCN1CCOCC1)c1nnc(C)n1-2` (centres unmarked) [JQ33], in data set [11], the “binding activity with the BRD4 site 1” value is “excellent binding activity” and the IC50 amounted to 85 nM. In addition, in data set [12], the “binding activity with the BRD4 site 2” value is recorded as “excellent binding activity” and the IC50 was 29.5 nM.

For `Cc1sc2c(c1C)C(c1ccc(Cl)cc1)=NC(CC(=O)NCCCN1CCN(C)CC1)c1nnc(C)n1-2` (centres unmarked) [JQ35], in data set [11], the “binding activity with the BRD4 site 1” value is given as “excellent binding activity”. Besides, in data set [12], the “binding activity with the BRD4 site 2” value is “excellent binding activity”.

As to `Cc1sc2c(c1C)C(c1ccc(Cl)cc1)=NC(CC(=O)NN)c1nnc(C)n1-2` (centres unmarked) [hydrazide (3)], the “activity in at least one biological assay” value in data set [13] was “showed activity”.

Consider `Cc1sc2c(c1C)C(c1ccc(Cl)cc1)=NC(CC(=O)NN=Cc1ccc(O)cc1)c1nnc(C)n1-2` (centres unmarked) [hydrazone (4)], for which the “activity in at least one biological assay” value in [13] is listed as “showed activity”.

For “tert-Butyl 2-(4-(4-chlorophenyl)-2,3,9-trimethyl-6H-thieno[3,2-f][1,2,4]triazolo[4,3-a][1,4]diazepin-6-yl)acetate [JQ1]”, the “effect on cell proliferation” value in [14] is recorded as “Minimal effects observed on cell proliferation”. In [15], the body weight entry is “mild weight loss with rapid recovery after cessation of therapy” and the tumor volume entry was “tumor regression while on therapy”. In [2] (U2OS cells, 500 nM), the “fluorescence recovery of GFP-BRD4” value was “observed recovery is immediate”. Moreover, the “nuclear NUT foci by IHC” value in data set [3] (797 NMC cell line, 500 nM, 48 hours) is reported as “effaced nuclear foci”. The same compound had a time to differentiation in [3] (NMC 797 and Per403 cells) of less than 24 h. In [16], the differentiation effects result was “fail to exhibit differentiation effects”. For the same compound, the “apoptosis (annexin-V and propidium iodide staining)” value in data set [17] was “induced immediate and progressive apoptosis”. Besides, in data set [18], the “time-to-recovery of fluorescence intensity, GFP-BRD4-NUT” value is “markedly accelerated time-to-recovery of fluorescence intensity”. Also, the “redistribution of GFP-NUT” value in [19] is on record as “no effect was observed”. Besides, in [20] (50 mg kg^−1 daily intraperitoneal, 14 days), the “tumor growth (tumor volume by caliper)” value was “statistically-significant reduction in tumor growth”. Also, the “FDG uptake by PET imaging” value in [20] (50 mg kg^−1 daily intraperitoneal, four days) is “marked response on FDG uptake”. Moreover, the “tumor keratin expression, quantitative IHC” value in [20] (50 mg kg^−1 daily, excised tumors) is recorded as “strong (3+) keratin expression”. The “NUT nuclear speckles in sectioned tumor tissue” value in [20] (50 mg kg^−1 daily, excised tumors, IHC) is listed as “effacement of NUT nuclear speckles”. Also, in data set [7] (CD1 mice, oral 10 mg kg^−1), the “oral bioavailability (F)” value was found to be 49%. Further, in [21], the “off-target effects on cellular receptors” value is given as “few off-target effects on cellular receptors”.
